Reference: paper PMC8318231, “Rate-of-Kill (RoK) assays to triage large compound sets for Chagas disease drug discovery: Application to GSK Chagas Box” (PLoS Neglected Tropical Diseases, 2021)

Key:
TcCYP51 = conditions: formerly reported; cited from earlier work
[1] = test system: T. cruzi intracellular amastigotes in H9c2 cells; assay: Rate-of-Kill (RoK) high-content imaging assay, amastigotes per cell (AM/CELL) and curve descriptors; type: cell-based, Trypanosoma cruzi; parameters: key to ME_24h / ME_48h / ME_72h: % reduction in parasite burden (cidal response); t50pct_MCC50 / t50pct_Cmax: unit not given here; conditions: for ME_24h: 24h; for ME_48h: 48h; for ME_72h: 72h; for tlag_Cmax / t50pct_Cmax / t50%_Cmax: at Cmax; for ME_24h (%): maximum effect at 24 h; for ME_24h (%) / ME_48h (%) / ME_72h (%): RoK assay; for ME_48h (%): maximum effect at 48 h; for ME_72h (%): maximum effect at 72 h; for ME 24h (maximum effect at 24 hours, intracellular amastigotes): maximum percentage of parasite burden reduction reached by any concentration
In short: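 Readouts at each time point are amastigotes per cell and host nuclei count (cytotoxicity), from DRAQ5 high-content imaging. Infection: trypomastigotes on H9c2 at MOI 8 for 18 h. Dosing was 5 μM single point or 11 points, 1/3 steps from 50 μM. Effect scaled between 4 h infected and uninfected controls.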

[2] = test system: T. cruzi Tulahuen trypomastigotes; assay: T. cruzi trypomastigote assay (Cell Titer-Glo viability, ATP luminescence); type: cell-based, Trypanosoma cruzi; conditions: for Trypomastigotes pIC50 48 hours: 48 hours incubation; for Trypomastigotes pIC50 48 hours / Trypomastigotes pIC50 72 hours: pIC50 = -log10 IC50 in molar units; for Trypomastigotes pIC50 72 hours: 72 hours incubation; for 72 pIC50 (trypomastigotes, raw data of Fig 1D): 72 hours, plotted values, censored values given without sign; for 48 pIC50 / 72 pIC50: trypomastigote assay; for 48 pIC50: 48 h; for 72 pIC50: 72 h
In short: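 Compounds were tested in dose response or once at a final 5 μM against 5 × 10^4 trypomastigotes per well (DMEM, 2% FBS), collected on days 5–8 from LLC-MK2 infected cultures. ATP luminescence via CellTiter-Glo reports live parasites; DMSO defines 0% and cell-free wells 100% effect.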

SMILES	CYP51 pIC50 (TcCYP51)	ME_24h ([1]; figure 5)	ME_48h ([1]; figure 5)	ME_72h ([1]; figure 5)	MCCE ([1]; RoK curve descriptor) [µM]	AM/CELL NORM ([1]; Time 4, sheet figure 4 A)	AM/CELL NORM ([1]; Time 24, sheet figure 4 A)	AM/CELL NORM ([1]; Time 48, sheet figure 4 A)	AM/CELL NORM ([1]; Time 72, sheet figure 4 A)	t50pct_Cmax ([1]; figure 5)	tlag_Cmax ([1]; figure 5)	t50pct_MCC50 ([1]; at MCC50, figure 5)	tlag_MCC50 ([1]; at MCC50, figure 5)	MCCE ([1]; figure 5)	ME_24h (%) [1] [%]	ME_48h (%) [1] [%]	ME_72h (%) [1] [%]	ME 24h (maximum effect at 24 hours, intracellular amastigotes) [1] [%]	Trypomastigotes pIC50 48 hours [2]	Trypomastigotes pIC50 72 hours [2]	further results
Cc1nn(C)c(Cl)c1CN(Cc1cccnc1)Cc1ccsc1 [TCMDC-143477]	7.2	-46.0078	-102.792	-13.578	0.6	-6.323	-46.0078	-102.792	-72.3369	72	48	72	72	0.6173	-46.0	-102.8	-13.6	-46.0078	< 4.3	< 4.3	tlag_Cmax [1]: 48.0 h; MCC50 ([1]; figure 5): 50 µM; 72 pIC50 (trypomastigotes, raw data of Fig 1D) [2]: < 4.3; 48 pIC50 ([2]; figure 1A): < 4.3; 72 pIC50 ([2]; figure 1A): < 4.3; 72 pIC50 ([2]; figure 1B): < 4.3
Cc1ccc(C)c(OC2CCN(C(=O)C(C)n3ccnc3)CC2)c1 (centres unmarked) [TCMDC-143481]	7	-18.0648	-41.8218	55.4241	0.6	-1.4032	-18.0648	-41.8218	1.753	72	48	72	48	0.6173	-18.1	-41.8	55.4	-18.0648	< 4.3	< 4.3	MCC50 ([1]; RoK curve descriptor): 5.6 µM; tlag_Cmax [1]: 48.0 h; t50%_MCC50 ([1]; at MCC50): 72.0 h; tlag_MCC50 ([1]; at MCC50): 48.0 h; MCC50 ([1]; figure 5, in µM): 5.556; 72 pIC50 (trypomastigotes, raw data of Fig 1D) [2]: < 4.3; 48 pIC50 ([2]; figure 1A): < 4.3; 72 pIC50 ([2]; figure 1A): < 4.3; 72 pIC50 ([2]; figure 1B): < 4.3
Cc1[nH]c2ccccc2c(=O)c1Cc1c(C)[nH]c2ccccc2c1=O [TCMDC-143490]	< 4	37.5404	50.8304	51.8782	0.01	13.7757	37.5404	50.8304	51.8782	48	4	48	4	0.007621	37.5	50.8	51.9	37.5404	5.7	4.8	MCC50 ([1]; RoK curve descriptor): 50.0 µM; t50%_Cmax [1]: 48.0 h; tlag_Cmax [1]: 4.0 h; t50%_MCC50 ([1]; at MCC50): 48.0 h; tlag_MCC50 ([1]; at MCC50): 4.0 h; MCC50 ([1]; figure 5): 50 µM
CNc1cc(C)nc(C2CN(C(=O)c3n[nH]c4ccccc34)CCO2)c1 (centres unmarked) [TCMDC-143494]	< 4	32.4456	71.1038	67.5793	1.9	7.648	27.7451	71.1038	67.5793	48	4	48	4	1.852	32.5	71.1	67.6	32.4456	5.9	5.5	MCC50 ([1]; RoK curve descriptor): 50.0 µM; t50%_Cmax [1]: 48.0 h; tlag_Cmax [1]: 4.0 h; t50%_MCC50 ([1]; at MCC50): 48.0 h; tlag_MCC50 ([1]; at MCC50): 4.0 h; MCC50 ([1]; figure 5): 50 µM
Cc1nccn1C1CCCN(C(=O)c2cc3c(F)cccc3s2)C1 (centres unmarked) [TCMDC-143498]	4.3	32.6582	54.1455	68.2465	1.9					48	8	72	33.6	1.852	32.7	54.2	68.3	52.5921	4.7	4.7	MCC50 ([1]; RoK curve descriptor): 4.6 µM; AM/CELL NORM ([1]; Time 4, figure 4 A): 21.9505; AM/CELL NORM ([1]; Time 24, figure 4 A): 50.5271; AM/CELL NORM ([1]; Time 48, figure 4 A): 69.4926; AM/CELL NORM ([1]; Time 72, figure 4 A): 61.0854; t50%_Cmax [1]: 48.0 h; tlag_Cmax [1]: 8.0 h; t50%_MCC50 ([1]; at MCC50): 72.0 h; tlag_MCC50 ([1]; at MCC50): 24.0 h; MCC50 ([1]; figure 5, in µM): 13.7037; 72 pIC50 (trypomastigotes, raw data of Fig 1D) [2]: 4.7; 48 pIC50 ([2]; figure 1A): 4.7; 72 pIC50 ([2]; figure 1A): 4.7; 72 pIC50 ([2]; figure 1B): 4.7
Cc1cc2cncn2c(C2CCCCN2C(=O)c2cccs2)n1 (centres unmarked) [TCMDC-143500]	7	-103.212	-13.304	53.284	0.2	8.792	-103.212	-13.304	50.5477	72	24	72	24	0.2058	-103.2	-13.3	53.3	-103.212	< 4.3	< 4.3	MCC50 ([1]; RoK curve descriptor): 16.7 µM; t50%_Cmax [1]: 72.0 h; tlag_Cmax [1]: 24.0 h; t50%_MCC50 ([1]; at MCC50): 72.0 h; tlag_MCC50 ([1]; at MCC50): 24.0 h; MCC50 ([1]; figure 5, in µM): 16.6667; 72 pIC50 (trypomastigotes, raw data of Fig 1D) [2]: < 4.3; 48 pIC50 ([2]; figure 1A): < 4.3; 72 pIC50 ([2]; figure 1A): < 4.3; 72 pIC50 ([2]; figure 1B): < 4.3
Cn1cncc1CN1CCC2(CC1)COC(Cc1ccccc1)C2 (centres unmarked) [TCMDC-143502]	6	-3.518	29.7799	64.8887	1.9	12.5806	-3.518	-12.3342	16.2947	72	48	72	24	1.852	-3.5	29.8	64.9	-3.518	< 4.3	< 4.3	MCC50 ([1]; RoK curve descriptor): 5.6 µM; tlag_Cmax [1]: 48.0 h; t50%_MCC50 ([1]; at MCC50): 72.0 h; tlag_MCC50 ([1]; at MCC50): 24.0 h; MCC50 ([1]; figure 5, in µM): 5.556; 72 pIC50 (trypomastigotes, raw data of Fig 1D) [2]: < 4.3; 48 pIC50 ([2]; figure 1A): < 4.3; 72 pIC50 ([2]; figure 1A): < 4.3; 72 pIC50 ([2]; figure 1B): < 4.3
CN(Cc1ccc(C(N)=O)cc1)C(c1ccc(F)cc1)c1cccnc1 (centres unmarked) [TCMDC-143504]	7	-95.1621	-135.708	0.6882	0.6	2.577	-143.385	-163.001	-44.3312	72	48	72	72	0.6173	-95.2	-135.7	0.7	-95.1621	< 4.3	< 4.3	MCC50 ([1]; figure 5): 50 µM; 72 pIC50 (trypomastigotes, raw data of Fig 1D) [2]: < 4.3; 48 pIC50 ([2]; figure 1A): < 4.3; 72 pIC50 ([2]; figure 1A): < 4.3; 72 pIC50 ([2]; figure 1B): < 4.3
